Assay results from ChEMBL document CHEMBL5506000, “Design, synthesis and antibacterial evaluation of low toxicity amphiphilic-cephalosporin derivatives” (Eur J Med Chem, 2024).
The source made the active and inactive calls. No cut-off for these calls is given here.

Experiments:
Enterococcus faecalis = assay: Antibacterial activity against Enterococcus faecalis ATCC 29212 by CLSI protocol based assay; type: functional
Staphylococcus aureus [1] = assay: Antibacterial activity against Staphylococcus aureus ATCC 29213 by CLSI protocol based assay; type: functional
[2] = system: Stenotrophomonas maltophilia; assay: Antibacterial activity against Stenotrophomonas maltophilia ATCC 17808 by CLSI protocol based assay; type: functional
Escherichia coli [3] = assay: Antibacterial activity against Escherichia coli ATCC 25922 by CLSI protocol based assay; type: functional
[4] = Hemolytic activity in sheep RBC; type: toxicity, cell-based, Ovis aries, Erythrocyte; conditions: sheep red blood cells (erythrocytes)
Staphylococcus aureus [5] = assay: Antibacterial activity against methicillin resistant Staphylococcus aureus clinical isolates; type: functional
Staphylococcus aureus [6] = assay: Antibacterial activity against methicillin resistant Staphylococcus aureus clinical isolates assessed as 50% inhibition of bacterial growth; type: functional
Staphylococcus aureus [7] = assay: Antibacterial activity against early exponential growth phase Staphylococcus aureus assessed as reduction in bacterial colony at 8 times of MIC measured at 8 to 24 hrs by time-kill kinetics assay; type: functional, organism-based; conditions: time 8-24 hrs
Staphylococcus aureus [8] = assay: Post-antibiotic effect against Staphylococcus aureus at 1 times of MIC incubated for 1 hrs; type: functional
Staphylococcus aureus [9] = assay: Post-antibiotic effect against Staphylococcus aureus at 4 times of MIC incubated for 1 hrs; type: functional
Staphylococcus aureus [10] = assay: Antibacterial activity against Staphylococcus aureus measured after 3 to 6 hrs in presence of 50% plasma; type: functional, organism-based; conditions: time 3-6 hrs
Cell membrane [11] = assay: Induction of cell membrane depolarization in Staphylococcus aureus assessed as increase in fluorescence intensity at 16 microg/ml by DiSC3(5) dye based assay; type: cell membranes; conditions: dose 16.0 µg/ml
Cell membrane [12] = assay: Induction of inner membrane permeabilization in Staphylococcus aureus assessed as increase in fluorescence intensity at 16 microg/ml by PI staining based analysis; type: cell membranes; conditions: dose 16.0 µg/ml
Escherichia coli [13] = assay: Induction of morphological changes in Escherichia coli assessed as cell elongation at 8 times of MIC incubated for 6 hrs by scanning electron microscopic analysis; type: functional, organism-based
Staphylococcus aureus [14] = assay: Antibacterial activity against Staphylococcus aureus assessed as reduction in metabolic activity at sub-MIC; type: functional, organism-based
Staphylococcus aureus [15] = assay: Antibacterial activity against Staphylococcus aureus assessed as inhibition of metabolic activity at MIC; type: functional
[16] = Cytotoxicity against HUVEC assessed as reduction in cell viability by CCK-8 assay; type: toxicity, cell-based; conditions: human, HUVEC cells
[17] = Cytotoxicity against rat HBZY-1 cells assessed as reduction in cell viability by CCK-8 assay; type: toxicity, cell-based
Staphylococcus aureus [18] = assay: Drug resistance, ratio of MIC for Staphylococcus aureus measured after 20 days to MIC for Staphylococcus aureus; type: functional
Staphylococcus aureus [19] = assay: Drug resistance, ratio of MIC for Staphylococcus aureus measured after 10 days to MIC for Staphylococcus aureus; type: functional
Staphylococcus aureus [20] = assay: Resistance development in 20 day passaged Staphylococcus aureus assessed as beta-lactam antibacterial activity; type: functional, organism-based
Staphylococcus aureus [21] = assay: Resistance development in 20 day passaged Staphylococcus aureus assessed as cefotaxime antibacterial activity; type: functional, organism-based
Staphylococcus aureus [22] = assay: Resistance development in 20 day passaged Staphylococcus aureus assessed as ampicillin antibacterial activity; type: functional, organism-based
Staphylococcus aureus [23] = assay: Resistance development in 20 day passaged Staphylococcus aureus assessed as ciprofloxacin antibacterial activity; type: functional, organism-based
Staphylococcus aureus [24] = assay: Resistance development in 20 day passaged Staphylococcus aureus assessed as levofloxacin antibacterial activity; type: functional, organism-based
[25] = Hemolytic activity in sheep RBC assessed as hemolysis rate at 1280 microg/ml relative to control; type: toxicity, cell-based, Ovis aries, Erythrocyte; conditions: sheep red blood cells (erythrocytes), dose 1280 µg/ml, read-out: Activity
Staphylococcus aureus [26] = assay: Antibacterial activity against Staphylococcus aureus in presence of 50% plasma; type: functional
Staphylococcus aureus [27] = assay: Antibacterial activity against Staphylococcus aureus in presence of 50% serum; type: functional
Cell membrane [28] = assay: Induction of cell membrane damage in Staphylococcus aureus assessed as nucleic acid leakage at 8 to 32 microg/ml by absorbance based analysis; type: cell membranes; conditions: dose 8-32 µg/ml
Cell membrane [29] = assay: Induction of cell membrane damage in Staphylococcus aureus assessed as protein leakage at 8 to 32 microg/ml; type: cell membranes; conditions: dose 8-32 µg/ml
[30] = Cytotoxicity against HUVEC assessed as viable cells at 128 microg/ml incubated for 48 hrs by CCK-8 assay relative to control; type: toxicity, cell-based; conditions: human, at 128 µg/mL, read-out: Activity
[31] = Cytotoxicity against rat HBZY-1 cells assessed as viable cells at 128 microg/ml incubated for 48 hrs by CCK-8 assay relative to control; type: toxicity, cell-based; conditions: at 128 µg/mL, read-out: Activity
Staphylococcus aureus [32] = assay: Drug resistance, ratio of MIC for Staphylococcus aureus measured within 20 days to MIC for Staphylococcus aureus; type: functional

| SMILES | MIC (Enterococcus faecalis) | MIC (Staphylococcus aureus [1]) | MIC [2] | MIC (Escherichia coli [3]) | HC50 [4] | MIC (Staphylococcus aureus [5]) | MIC50 (Staphylococcus aureus [6]) | PAE (Staphylococcus aureus [8]) | PAE (Staphylococcus aureus [9]) | Activity (Staphylococcus aureus [10]) | Activity (Cell membrane [11]) | Activity (Cell membrane [12]) | Activity (Escherichia coli [13]) | Activity (Staphylococcus aureus [14]) | inhibition (INH) (Staphylococcus aureus [15]) | CC50 [16] | CC50 [17] | Activity (Staphylococcus aureus [20]) | Activity (Staphylococcus aureus [21]) | Activity (Staphylococcus aureus [22]) | further results |
| --- | --- | --- | --- | --- | --- | --- | --- | --- | --- | --- | --- | --- | --- | --- | --- | --- | --- | --- | --- | --- | --- |
| CO/N=C(\C(=O)N[C@@H]1C(=O)N2C(C(=O)[O-])=C(C[n+]3ccccc3)CS[C@H]12)c1csc(N)n1.O=C(O)C(F)(F)F | 4 µg/mL | 1 µg/mL | 0.063 µg/mL | 0.063 µg/mL | > 1280 µg/mL | 2 µg/mL | 2 µg/mL | 1.48 h | 2.1 h | Active | inactive | inactive | Active | Active | ~100% | > 128 µg/mL | > 128 µg/mL | inactive | inactive | inactive | Activity (Staphylococcus aureus [7]): Active; Ratio (Staphylococcus aureus [18]): 32; Ratio (Staphylococcus aureus [19]): 8; Activity (Staphylococcus aureus [23]): inactive; Activity (Staphylococcus aureus [24]): inactive |
| CCCCCCCCNC(=O)c1ccc[n+](CC2=C(C(=O)[O-])N3C(=O)[C@@H](NC(=O)/C(=N\OC)c4csc(N)n4)[C@H]3SC2)c1.O=C(O)C(F)(F)F | 4 µg/mL | 0.5 µg/mL | 8 µg/mL | 8 µg/mL | > 1280 µg/mL | 2 µg/mL | 2 µg/mL | 1.58 h | 2.08 h | Active | inactive | inactive | Active | Active | ~100% | > 128 µg/mL | > 128 µg/mL | Active | Active | Active | hemolysis at 1280 microg/ml [25]: 2.85%; MIC (Staphylococcus aureus [26]): 1 µg/mL; MIC (Staphylococcus aureus [27]): 0.5 µg/mL; Activity (Cell membrane [28]): inactive; Activity (Cell membrane [29]): inactive; viability at 48 h, 128 microg/ml [30]: 100%; viability at 48 h, 128 microg/ml [31]: 92.6%; Ratio (Staphylococcus aureus [32]): <4; Activity (Staphylococcus aureus [23]): Active; Activity (Staphylococcus aureus [24]): Active |
